Measured values published in patent US9018414B2, “Substituted 3-phenylpropionic acids and the use thereof” (Bayer Intellectual Property GmbH, priority 2009, dated 2015).

Tested on: recombinant guanylate cyclase reporter cell line
Assay: Action at recombinant guanylate cyclase reporter cell line (CHO reporter cell)
Type: cell-based
Conditions: MEC = minimal effective concentration; read-out: sGC-activating activity in the CHO reporter cell in vitro, MEC
Method: The cellular action of the compounds according to the invention is determined at a recombinant guanylate cyclase reporter cell line, as described in F. Wunder et al., Anal. Biochem. 339, 104-112 (2005).

Row | SMILES | minimal effective concentration [µM]
1 | C[C@H]([C@H](C(=O)Nc1cc(C2(CC(=O)O)CCC2)ccc1Cl)c1ccc(Cl)cc1)C(F)(F)F [Example 90] | 0.001
2 | C[C@H]([C@H](C(=O)Nc1cc(C2(CC(=O)O)CC(F)(F)C2)ccc1Cl)c1ccc(Cl)cc1)C(F)(F)F [Example 102] | 0.001
3 | CCC[C@@H](CC(=O)O)c1ccc(Cl)c(NC(=O)[C@H](c2ccc(Cl)cc2)[C@@H](C)C(F)(F)F)c1 (single isomer, unassigned) [Example 82] | 0.00023
4 | CC[C@@H](CC(=O)O)c1ccc(Cl)c(NC(=O)[C@H](c2ccc(Cl)cc2)[C@@H](C)C(F)(F)F)c1 (single isomer, unassigned) [Example 87] | 0.001
5 | CC(Cc1ccc(F)c(NC(=O)C(c2ccc(Cl)cc2)[C@@H](C)C(F)(F)F)c1)C(=O)O (stereo partly drawn) [Example 37, 3-(3-{[(3R)-2-(4-Chlorophenyl)-4,4,4-trifluoro-3-methylbutanoyl]amino}-4-fluorophenyl)-2-methylpropanoic acid] | 0.01
6 | C[C@@H](CC(=O)O)c1ccc(Cl)c(NC(=O)C(c2ccc(Cl)cc2)C2CCCC2(F)F)c1 (stereo partly drawn) [Example 10, (3S)-3-(4-chloro-3-{[(4-chlorophenyl)(2,2-difluoro-cyclopentyl)acetyl]amino}phenyl)butanoic acid] | 0.0052
7 | C[C@H]([C@H](C(=O)Nc1cc(C2(CC(=O)O)CC2)ccc1Cl)c1ccc(Cl)cc1)C(F)(F)F [Example 96] | 0.001
8 | CCCC(CC(=O)O)c1ccc(Cl)c(NC(=O)[C@H](c2ccc(Cl)cc2)[C@@H](C)C(F)(F)F)c1 (stereo partly drawn) [Example 81, 3-(4-Chloro-3-{[(2S,3R)-2-(4-chlorophenyl)-4,4,4-trifluoro-3-methylbutanoyl]amino}phenyl)-hexanoic acid] | 0.0003
9 | C[C@H]([C@H](C(=O)Nc1cc(CC(C)(C)C(=O)O)ccc1Cl)c1ccc(Cl)cc1)C(F)(F)F [Example 89] | 0.003
10 | C[C@H]([C@H](C(=O)Nc1cc([C@H](CC(=O)O)C(F)(F)F)ccc1Cl)c1ccc(Cl)cc1)C(F)(F)F (single isomer, unassigned) [Example 84] | 0.001
11 | CCC(C)(Cc1ccc(Cl)c(NC(=O)[C@H](c2ccc(Cl)cc2)[C@@H](C)C(F)(F)F)c1)C(=O)O (single isomer, unassigned; (+)) [Example 71] | 0.01
12 | CC(C(C(=O)Nc1cc(C[C@H](C)C(=O)O)ccc1Cl)c1ccc(CC(F)(F)F)cc1)C(F)(F)F (stereo partly shown) [Example 99] | 0.01
13 | C[C@H](C(C(=O)Nc1cc(C2(CC(=O)O)CCC2)ccc1Cl)c1ccc(Cl)cc1)C(F)(F)F (stereo partly drawn) [Example 28, [1-(4-Chloro-3-{[(3R)-2-(4-chlorophenyl)-4,4,4-trifluoro-3-methylbutanoyl]amino}-phenyl)cyclobutyl]acetic acid] | 0.001
14 | CCc1ccc([C@@H](C(=O)Nc2cc(C(C)CC(=O)O)ccc2Cl)[C@@H](C)C(F)(F)F)cc1 (stereo partly drawn) [Example 7, 3-(4-chloro-3-{[(2S,3R)-2-(4-ethylphenyl)-4,4,4-tri-fluoro-3-methylbutanoyl]amino}phenyl)butanoic acid] | 0.0002
15 | CC(C(=O)O)C(C)c1ccc(F)c(NC(=O)[C@H](c2ccc(Cl)cc2)[C@@H](C)C(F)(F)F)c1 (stereo partly drawn) [Example 50, threo-3-(3-{[(2S,3R)-2-(4-chlorophenyl)-4,4,4-tri-fluoro-3-methylbutanoyl]amino}-4-fluorophenyl)-2-methylbutanoic acid] | 0.03
16 | C[C@H]([C@H](C(=O)Nc1cc(CCC(=O)O)ccc1Cl)c1ccc(CC(F)(F)F)cc1)C(F)(F)F (racemic) [Example 5, 3-[4-Chloro-3-({4,4,4-trifluoro-3-methyl-2-[4-(2,2,2-trifluoroethyl)phenyl]butanoyl}amino)phenyl]-propanoic acid] | 0.003
17 | C[C@H]([C@H](C(=O)Nc1cc(CCC(=O)O)ccc1Cl)c1ccc(C(C)(C)C)cc1)C(F)(F)F [Example 2, (+)-3-(3-{[(2S,3R)-2-(4-tert-butylphenyl)-4,4,4-trifluoro-3-methylbutanoyl]amino}-4-chlorophenyl)-propanoic acid] | 0.0003
18 | C[C@H]([C@H](C(=O)Nc1cc(C[C@H](C)C(=O)O)ccc1Cl)c1ccc(C2CC(F)(F)C2)cc1)C(F)(F)F [Example 100] | 0.003
19 | CC[C@@H](Cc1ccc(Cl)c(NC(=O)[C@H](c2ccc(Cl)cc2)[C@@H](C)C(F)(F)F)c1)C(=O)O [Example 30, (+)-(2S)-2-(4-Chloro-3-{[(2S,3R)-2-(4-chlorophenyl)-4,4,4-trifluoro-3-methylbutanoyl]amino}-benzyl)butanoic acid] | 0.0003
20 | C[C@H]([C@H](C(=O)Nc1cc(C2(CC(=O)O)CC2)ccc1F)c1ccc(Cl)cc1)C(F)(F)F [Example 18, (+)-[1-(3-{[(2S,3R)-2-(4-Chlorophenyl)-4,4,4-trifluoro-3-methylbutanoyl]amino}-4-fluorophenyl)-cyclopropyl]acetic acid] | 0.01
21 | C[C@H]([C@H](C(=O)Nc1cc(C2CC2C(=O)O)ccc1F)c1ccc(Cl)cc1)C(F)(F)F (single isomer, unassigned) [Example 53] | 0.3
22 | C[C@@H](Cc1ccc(Cl)c(NC(=O)C(c2ccc(Cl)cc2)C2CCC(F)(F)C2)c1)C(=O)O (single isomer, unassigned) [Example 105] | 0.03
